# Patent publication US20220306640A1, “HYDANTOIN DERIVATIVE” (ONO PHARMACEUTICAL CO., LTD., priority 2019, published 2022)
# Columns and labels:
# DDR1 = target: T1, DDR1 (Homo sapiens, UniProt Q08345); experiment: Measurement of DDR1 inhibitory activity (LanthaScreen system, in vitro test); assay type: binding; conditions: GST-DDR1, Kinase tracer 178
# T1 construct: purchased Invitrogen
# Procedure: Biological Experiment Example 1: Measurement of an DDR1 Inhibitory Activity (In Vitro Test)
# An DDR1 enzyme inhibitory activity was measured by using LanthaScreen (registered trademark) system (Invitrogen) based on the attached instruction. The reagents used are shown below.
# Assay buffer: 5× Kinase buffer A (Invitrogen) was diluted 5-fold with ddH2O.
# 1× Kinase Buffer A: 50 mmol/L HEPES pH 7.5, 10 mmol/L MgCl2, 1 mmol/L EGTA, 0.01% Brij-35.
# 2×DDR1 Solution: a solution containing […] GST-DDR1 (Invitrogen) was prepared by using Assay buffer.
# 2× Tracer/antibody solution: a solution containing 20 nmol/L Kinase tracer 178 (Invitorgen) and […] Eu-Anti-GST Antibody (Invitorogen) was prepared by using Assay buffer. Test compound solution: a solution containing a test compound of 2-fold concentration with respect to the final concentration was prepared by 50-fold diluting a DMSO solution of test compound of each concentration with the Assay buffer.
# • 1 Add 5 μL 2×DDR1 Solution to proxiplate (PerkinElmer) • 2 Add 5 μL test compound solution to proxiplate • 3 Incubate for 15 min at RT • 4 Add 5 μL 2× Tracer/Antibody solution to all well Incubate 1 h at RT • 6 Read LANCE Eu on Envision (PerkinElmer) (Ex: 320 nm/Em 665 nm & 615 nm)
# In the low control group, 5 μL Assay buffer was added instead of 5 μL 2×DDR1 Solution and the final 1% DMSO solution was added instead of test compound solution.
# In the high control group, the final 1% DMSO solution was added instead of test compound solution.
# (§1) The inhibition rate (%) in the test compound group was calculated based on the following mathematical formula.
# % inhibition=100−100*(assay value of test compound−A)/(B−A) [Math. 1]
# A: average value of low control group B: average value of high control group
# Values of 50% inhibition rate (IC50 values) of the test compound were calculated from the inhibition curve based on the inhibition rate of the test compounds in each concentration.
# [1] = target: T2, DDR1 phosphorylation in T-47D (ATCC, HTB-133) cells (Homo sapiens, UniProt Q08345); experiment: Measurement of DDR1 phosphorylation suppression rate by using T-47D cells (p-DDR1 ELISA); assay type: cell-based; conditions: collagen Type I 10 μg/ml, p-DDR1 (panTyr) ELISA
# T2 construct: host or cells: T-47D
# T2 sequence (Q08345 19-913): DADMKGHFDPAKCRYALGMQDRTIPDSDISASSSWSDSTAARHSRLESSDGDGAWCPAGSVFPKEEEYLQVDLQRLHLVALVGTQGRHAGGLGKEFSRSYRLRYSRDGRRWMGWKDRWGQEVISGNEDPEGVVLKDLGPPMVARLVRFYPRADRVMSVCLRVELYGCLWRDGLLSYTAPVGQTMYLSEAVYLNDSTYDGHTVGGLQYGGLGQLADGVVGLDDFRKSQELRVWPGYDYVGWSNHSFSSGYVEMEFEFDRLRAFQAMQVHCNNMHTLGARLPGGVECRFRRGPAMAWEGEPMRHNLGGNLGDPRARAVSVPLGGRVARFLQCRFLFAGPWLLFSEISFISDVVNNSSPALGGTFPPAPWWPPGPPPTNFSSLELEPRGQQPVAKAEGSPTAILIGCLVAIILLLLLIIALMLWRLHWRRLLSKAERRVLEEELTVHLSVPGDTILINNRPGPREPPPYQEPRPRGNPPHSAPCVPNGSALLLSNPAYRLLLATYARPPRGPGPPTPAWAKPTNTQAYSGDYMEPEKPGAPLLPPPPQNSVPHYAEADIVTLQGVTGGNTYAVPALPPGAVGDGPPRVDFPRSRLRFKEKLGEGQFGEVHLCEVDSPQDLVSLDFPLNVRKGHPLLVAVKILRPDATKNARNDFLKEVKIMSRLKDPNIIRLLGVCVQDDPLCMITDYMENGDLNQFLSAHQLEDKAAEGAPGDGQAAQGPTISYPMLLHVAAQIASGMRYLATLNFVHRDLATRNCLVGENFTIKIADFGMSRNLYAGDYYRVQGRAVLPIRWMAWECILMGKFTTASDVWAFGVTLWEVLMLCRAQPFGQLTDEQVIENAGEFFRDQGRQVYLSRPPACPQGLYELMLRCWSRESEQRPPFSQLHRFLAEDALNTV
# Procedure: Biological Example 2: Measurement of DDR1 Phosphorylation Suppression Rate by Using T-47D (ATCC, HTB-133) cells
# T-47D cells should be in culture for at least 7 days before using in the assay.
# Cell culture medium: RPMI 1640 (HyClone) containing 10% Heat-FBS (HyClone) was prepared.
# Assay medium: RPMI 1640 containing 0.1% BSA (solarbio) was prepared.
# Collagen Type I (rat tail) solution: Assay medium containing 200 μg/mL Collagen I, rat tail (Gibco) was prepared.
# Cell lysis buffer: a solution containing IX cell lysis buffer (CST) and 1× protease and phosphatase inhibitor cocktail (Thermofisher) was prepared by using ddH2O.
# • 1. Collect cells into tubes and centrifuge at 1200 rpm for 5 min, at room temperature. Re-suspend the cells in cell culture medium pre-warmed to room temperature. • 2. Count cells and suspend at a density of 2×10^5/ml of cell culture medium. Plate the cells at 100 μL per well (Corning 3599 96-well plate, 2×10^4 cells per well final), mixing the cells well between each draw of the pipettor. • 3. Put lid on cell plate and place into the incubator at 37° C., 5% CO2 • 4. Culture cell overnight
# • 1. Remove the plate from the incubator • 2. Cell medium is replaced with the 90 μL Assay medium.
# • 1. Compound plates are pre-titrated using DMSO (10-fold dilution for 6 points) • 2. Dilute test compound using assay medium; Transfer 1 μL compound to other 96 well plate and then add 49 μL assay medium to each well (50 fold dilution). • 3. Add 5 μL the diluted test compound solution to the appropriate wells by pipettor. Compound final concentration is start from […] and DMSO final concentration is 0.1 • 4. Tap the plates gently to mix in compound. Reseal the plate with a lid and place in the incubator again, for 24 h.
# • 1. Diluted collagen Type I in assay medium to the 200 μg/ml concentration • 2. Using the pipettor adds 5 μL of 200 μg/mL collagen Type I solution to the cell plate (compound well and High control well, collagen final conc. is 10 μg/ml). Add assay medium buffer to the control wells (low control well) • 3. Reseal the plate with a lid and place in the incubator. Incubate 24 h for collagen type I
# • 1. After incubation, add 100 µL per well Cell lysis buffer. • 2. Incubate 30 min on ice, then freezing to −80° C. to get the fully cell lysates. • 3. Transfer cell lysates to new plate • 4. Centrifuge for 30 min (×4000 rpm) at 4° C. Then transfer the supernatant to a new plate.
# p-DDR1 (panTyr) ELISA kit (CST) was used in the study. The measurement was carried out according to the attached instruction.
# as §1
# % inhibition=100−100*(assay value of test compound−A)/(B−A) [Math. 2]
# A: average value of low control group B: average value of high control group Values of 50% inhibition rate (IC50 values) of the test compound were calculated from the inhibition curve based on the inhibition rate of the test compounds in each concentration.
# T1 sequence (Q08345 19-913): as above
Structure (SMILES),IC50 (DDR1) [nM],IC50 [1] [nM]
"CC(C)c1cc(N2C(=O)CN(c3ccc(CN4CCN(C)CC4)c(C(F)(F)F)c3)C2=O)ccc1Oc1ccnc(N)n1 [Example 3(78), 3-{4-[(2-amino-4-pyrimidinyl)oxy]-3-isopropylphenyl}-1-{4-[(4-methyl-1-piperazinyl)methyl]-3-(trifluoromethyl)phenyl}-2,4-imidazolidinedione]",4,2
"Cc1cc(N2C(=O)CN(c3cncc(C(F)(F)F)c3)C2=O)ccc1Oc1ccnc2ccnn12 [Example 3(47), 3-[3-methyl-4-(pyrazolo[1,5-a]pyrimidin-7-yloxy)phenyl]-1-[5-(trifluoromethyl)-3-pyridinyl]-2,4-imidazolidinedione]",1,1
"CC(C)c1cc(N2C(=O)CN(c3cc(C(F)(F)F)cn(C)c3=O)C2=O)ccc1Oc1ccnc2cc(OCCCS(C)(=O)=O)ccc12 [Example 2(6), 3-[3-isopropyl-4-({7-[3-(methylsulfonyl)propoxy]-4-quinolinyl}oxy)phenyl]-1-[1-methyl-2-oxo-5-(trifluoromethyl)-1,2-dihydro-3-pyridinyl]-2,4-imidazolidinedione]",10,6
"CCc1cc(N2C(=O)CN(c3cc(C(C)(C)C(F)(F)F)on3)C2=O)ccc1Oc1ccnc(N)n1 [Example 3(101), 3-{4-[(2-amino-4-pyrimidinyl)oxy]-3-ethylphenyl}-1-[5-(1,1,1-trifluoro-2-methyl-2-propanyl)-1,2-oxazol-3-yl]-2,4-imidazolidinedione]",3,2
"COc1cc2nccc(N3CCc4cc(N5C(=O)CN(c6cncc(C(F)(F)F)c6)C5=O)ccc43)c2cc1OC [Example 9(1), 3-[1-(6,7-dimethoxy-4-quinolinyl)-2,3-dihydro-1H-indol-5-yl]-1-[5-(trifluoromethyl)-3-pyridinyl]-2,4-imidazolidinedione]",10,20
"Nc1nccc(Oc2ccc(N3C(=O)CN(c4cncc(C(F)(F)F)c4)C3=O)c(-c3ccccc3)c2)n1 [Example 3(122), 3-{5-[(2-amino-4-pyrimidinyl)oxy]-2-biphenylyl}-1-[5-(trifluoromethyl)-3-pyridinyl]-2,4-imidazolidinedione]",5,7
"CS(=O)(=O)c1cc(N2CC(=O)N(c3ccc(Oc4cnc5[nH]ncc5c4)cc3)C2=O)cc(C(F)(F)F)c1 [Example 1(28), 1-[3-(methylsulfonyl)-5-(trifluoromethyl)phenyl]-3-[4-(1H-pyrazolo[3,4-b]pyridin-5-yloxy)phenyl]-2,4-imidazolidinedione]",2,2
"Nc1ncc(Oc2ccc(N3C(=O)CN(c4cncc(C(F)(F)F)c4)C3=O)cc2)cn1 [Example 1, 3-{4-[(2-amino-5-primidinyl)oxy]phenyl}-1-[5-(trifluoromethyl)-3-pyridinyl]-2,4-imidazolidinedione]",3,2
"CC#Cc1cc(Oc2ccnc(N)n2)ccc1N1C(=O)CN(c2cncc(C(F)(F)F)c2)C1=O [Example 3(120), 3-{4-[(2-amino-4-pyrimidinyl)oxy]-2-(1-propyn-1-yl)phenyl}-1-[5-(trifluoromethyl)-3-pyridinyl]-2,4-imidazolidinedione]",7,5
"C=Cc1cc(N2C(=O)CN(c3cncc(C(F)(F)F)c3)C2=O)ccc1Nc1ncnc2cc(OC)cc(F)c12 [Example 7(6), 3-{4-[(5-fluoro-7-methoxy-4-quinazolinyl)amino]-3-vinylphenyl}-1-[5-(trifluoromethyl)-3-pyridinyl]-2,4-imidazolidinedione]",3,2

# Continued, values first:
IC50 (DDR1) [nM],IC50 [1] [nM],Structure (SMILES)
20,5,"O=C1CN(c2cc(F)cc(C(F)(F)F)c2)C(=O)N1[C@H]1CC[C@H](Oc2cnc3ccsc3c2)CC1 [Example 2(125), 1-[3-fluoro-5-(trifluoromethyl)phenyl]-3-[trans-4-(thieno[3,2-b]pvridin-6-yloxy)cyclohexyl]-2,4-imidazolidinedione]"
3,1,"COc1ccc2c(O[C@H]3CC[C@H](N4C(=O)CN(c5cncc(C(F)(F)F)c5)C4=O)CC3)ncnc2c1 [Example 2(19), 3-{trans-4-[(7-methoxy-4-quinazolinyl)oxy]cyclohexyl}-1-[5-(trifluoromethyl)-3-pyridinyl]-2,4-imidazolidinedione]"
1,1,"Cc1cc(Oc2ccnc(N)n2)ccc1N1C(=O)CN(c2cc(F)cc(C(F)(F)F)c2)C1=O [Example 3(111), 3-{4-[(2-amino-4-pyrimidinyl)oxy]-2-methylphenyl}-1-[3-fluoro-5-(trifluoromethyl)phenyl]-2,4-imidazolidinedione]"
7,1,"O=C1CN(c2cncc(C(F)(F)F)c2)C(=O)N1C1CC2CC1CC2Oc1ncnc2[nH]ccc12 (centres unmarked) [Example 3(63), 3-[5-(7H-pyrrolo[2,3-d]pyrimidin-4-yloxy)bicyclo[2.2.1]hept-2-yl]-1-[5-(trifluoromethyl)-3-pyridinyl]-2,4-imidazolidinedione]"
1,1,"O=C1CN(c2cncc(C(F)(F)F)c2)C(=O)N1C1CC2(CC(Oc3ncnc4[nH]ccc34)C2)C1 (centres unmarked) [Example 3(66), 3-[6-(7H-pyrrolo[2,3-d]pyrimidin-4-yloxy)spiro[3.3]hept-2-yl]-1-[5-(trifluoromethyl)-3-pyridinyl]-2,4-imidazolidinedione]"
10,6,"Cn1cc(-c2cc(O[C@H]3C[C@H](N4C(=O)CN(c5cc(CN6CCNCC6)cc(C(F)(F)F)c5)C4=O)C3)ccn2)cn1 [Example 2(126), 3-(trans-3-{[2-(1-methyl-1H-pyrazol-4-yl)-4-pyridinyl]oxy}cyclobutyl)-1-[3-(1-piperazinylmethyl)-5-(trifluoromethyl)phenyl]-2,4-imidazolidinedione]"
